Biological target: T1, CCR2 (Homo sapiens, UniProt P41597)
T1 construct: expressed in transfected cells
Assay: CCR2 calcium activity assay on FLIPR Tetra in HEK-Gqi5 cells stably expressing CCR2
Format: cell-based

T1 sequence (P41597 whole entry, species assumed): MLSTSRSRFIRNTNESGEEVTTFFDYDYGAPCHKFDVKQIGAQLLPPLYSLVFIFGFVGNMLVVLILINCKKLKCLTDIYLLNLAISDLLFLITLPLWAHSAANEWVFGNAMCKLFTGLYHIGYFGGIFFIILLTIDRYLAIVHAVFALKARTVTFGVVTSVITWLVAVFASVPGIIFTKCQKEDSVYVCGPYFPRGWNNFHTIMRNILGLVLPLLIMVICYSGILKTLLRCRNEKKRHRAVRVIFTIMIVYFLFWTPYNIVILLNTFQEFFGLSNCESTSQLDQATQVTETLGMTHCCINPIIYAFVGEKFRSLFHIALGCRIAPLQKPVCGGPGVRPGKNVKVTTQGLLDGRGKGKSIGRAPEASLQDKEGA

## Cn1sc(=O)c2cc(S(=O)(=O)Nc3ccc(C#N)cc3NS(=O)(=O)c3cccs3)ccc21 [N-{4-cyano-2-[(2-thienylsulfonyl)amino]phenyl}-1-methyl-3-oxo-1,3-dihydro-2,1-benzisothiazole-5-sulfonamide]
  CCR2 % ANTAG: 31%

## CC(C)c1ccc(NS(=O)(=O)c2ccc3c(c2)c(=O)sn3C)c(NS(=O)(=O)c2cccs2)c1 [N-{4-isopropyl-2-[(2-thienylsulfonyl)amino]phenyl}-1-methyl-3-oxo-1,3-dihydro-2,1-benzisothiazole-5-sulfonamide]
  CCR2 % ANTAG: 87%
  IC50: 0.886 µM

## COc1ccc(NS(=O)(=O)c2ccc3c(c2)c(=O)sn3C)c(NS(=O)(=O)c2cccs2)c1 [N-{4-methoxy-2-[(2-thienylsulfonyl)amino]phenyl}-1-methyl-3-oxo-1,3-dihydro-2,1-benzisothiazole-5-sulfonamide]
  CCR2 % ANTAG: 60%
  IC50: 1.3 µM

## Cn1sc(=O)c2cc(S(=O)(=O)Nc3cc(Br)ccc3NS(=O)(=O)c3cccs3)ccc21 [N-{5-bromo-2-[(2-thienylsulfonyl)amino]phenyl}-1-methyl-3-oxo-1,3-dihydro-2,1-benzisothiazole-5-sulfonamide]
  CCR2 % ANTAG: 100%
  IC50: 0.537 µM

## Cn1sc(=O)c2cc(S(=O)(=O)Nc3cc(Cl)ccc3NCc3cccs3)ccc21 [N-{5-chloro-2-[(2-thienylmethyl)amino]phenyl}-1-methyl-3-oxo-1,3-dihydro-2,1-benzisothiazole-5-sulfonamide]
  CCR2 % ANTAG: 83%
  IC50: 1.08 µM

## Cn1sc(=O)c2cc(C(=O)Nc3cc(Cl)ccc3NS(=O)(=O)c3cccs3)ccc21 [N-{5-chloro-2-[(2-thienylsulfonyl)amino]phenyl}-1-methyl-3-oxo-1,3-dihydro-2,1-benzisothiazole-5-carboxamide]
  CCR2 % ANTAG: 99%

## Cn1sc(=O)c2cc(S(=O)(=O)Nc3cc(Cl)ccc3NS(=O)(=O)c3cccs3)ccc21 [N-{5-chloro-2-[(2-thienylsulfonyl)amino]phenyl}-1-methyl-3-oxo-1,3-dihydro-2,1-benzisothiazole-5-sulfonamide]
  CCR2 % ANTAG: 98%
  IC50: 0.234 µM

## Cn1sc(=O)c2cc(S(=O)(=O)Nc3cc(Cl)cnc3NS(=O)(=O)c3cccs3)ccc21 [N-{5-chloro-2-[(2-thienylsulfonyl)amino]pyridin-3-yl}-1-methyl-3-oxo-1,3-dihydro-2,1-benzisothiazole-5-sulfonamide]
  CCR2 % ANTAG: 48%
  IC50: 1.01 µM

## Cn1sc(=O)c2cc(S(=O)(=O)Nc3cc(Cl)cnc3C(=O)N3CCC(=O)CC3)ccc21 [N-{5-chloro-2-[(4-oxopiperidin-1-yl)carbonyl]pyridin-3-yl}-1-methyl-3-oxo-1,3-dihydro-2,1-benzisothiazole-5-sulfonamide]
  CCR2 % ANTAG: 58%

## Cc1cc(NS(=O)(=O)c2cccs2)c(NS(=O)(=O)c2ccc3c(c2)c(=O)sn3C)cc1Cl [N-{5-chloro-4-methyl-2-[(2-thienylsulfonyl)amino]phenyl}-1-methyl-3-oxo-1,3-dihydro-2,1-benzisothiazole-5-sulfonamide]
  CCR2 % ANTAG: 91%
  IC50: 0.531 µM

## Cn1sc(=O)c2cc(S(=O)(=O)Nc3cc(C#N)ccc3NS(=O)(=O)c3cccs3)ccc21 [N-{5-cyano-2-[(2-thienylsulfonyl)amino]phenyl}-1-methyl-3-oxo-1,3-dihydro-2,1-benzisothiazole-5-sulfonamide]
  CCR2 % ANTAG: 59%
  IC50: 2.72 µM

## CCc1ccc(NS(=O)(=O)c2cccs2)c(NS(=O)(=O)c2ccc3c(c2)c(=O)sn3C)c1 [N-{5-ethyl-2-[(2-thienylsulfonyl)amino]phenyl}-1-methyl-3-oxo-1,3-dihydro-2,1-benzisothiazole-5-sulfonamide]
  CCR2 % ANTAG: 94%
  IC50: 1.94 µM

## CC(C)c1ccc(NS(=O)(=O)c2cccs2)c(NS(=O)(=O)c2ccc3c(c2)c(=O)sn3C)c1 [N-{5-isopropyl-2-[(2-thienylsulfonyl)amino]phenyl}-1-methyl-3-oxo-1,3-dihydro-2,1-benzisothiazole-5-sulfonamide]
  CCR2 % ANTAG: 85%
  IC50: 0.425 µM

## COc1ccc(NS(=O)(=O)c2cccs2)c(NS(=O)(=O)c2ccc3c(c2)c(=O)sn3C)c1 [N-{5-methoxy-2-[(2-thienylsulfonyl)amino]phenyl}-1-methyl-3-oxo-1,3-dihydro-2,1-benzisothiazole-5-sulfonamide]
  CCR2 % ANTAG: 104%
  IC50: 1.41 µM

## COC(=O)c1ccc(NS(=O)(=O)c2cccs2)c(NS(=O)(=O)c2ccc3c(c2)c(=O)sn3C)c1 [methyl 3-{[(1-methyl-3-oxo-1,3-dihydro-2,1-benzisothiazol-5-yl)sulfonyl]amino}-4-[(2-thienylsulfonyl)amino]benzoate]
  CCR2 % ANTAG: 76%
  IC50: 2.41 µM

## COC(=O)c1ccc(NS(=O)(=O)c2ccc3c(c2)c(=O)sn3C)c(NS(=O)(=O)c2cccs2)c1 [methyl 4-{[(1-methyl-3-oxo-1,3-dihydro-2,1-benzisothiazol-5-yl)sulfonyl]amino}-3-[(2-thienylsulfonyl)amino]benzoate]
  CCR2 % ANTAG: 0%
  IC50: > 8.3 µM

## N,N-dimethyl-N-(4-{[(1-methyl-3-oxo-1,3-dihydro-2,1-benzisothiazol-5-yl)carbonyl]amino}benzyl)tetrahydro-2H-pyran-4-aminium
  CCR2 % ANTAG: 85%
  IC50: 1.19 µM

Reference: US8524745B2 (Allergan, Inc., priority 2011, dated 2013)
